Measured values reported in US9339488B2, “Anti-cervical cancer compound and method of use thereof” (Hong Kong Baptist University, priority 2013, dated 2016).

Columns and labels:
HeLa cells [1] = experiment: Western blot analysis of LC3-I, LC3-II and p62 expression; format: cell-based, human; details: 0, 1 and 5 μM, 24 hours; FIG. 5
Description: 6×10^5/ml HeLa cells are treated with Griffipavixanthone (0, 1 and 5 μM) for 24 hours. Cells are collected and cleavaged by RIPA and PMSF. Proteins are extracted and separated by 12% gel SDS-PAGE, and then are transferred to PVDF. Membranes are blocked with 5% nonfat dry milk in TBST for 0.5 hour. They are incubated and exposed with the respective primary antibodies, testing the content change of protein. The primary antibodies used to detect proteins in autophagy pathway: LC3 (16, 18 kD), p62 (62 kD) and GAPDH (37 kD).

HeLa cells [2] = experiment: Flow cytometer (FACS, PI staining) analysis of cell death; format: cell-based, human; details: 1 and 10 μM, 24 hours; DMEM vs EBSS (serum-free medium); FIG. 4
Description: 3×10^5/ml HeLa cells are treated with Griffipavixanthone (1 and 10 μM) for 24 hours. Cells are trypsinized and fixed in ice-cold 100% methanol overnight at 4° C. Cells are washed, incubated with the staining solution (100 μg/ml RNase A and 20 μg/ml PI in Phosphate Buffer Saline (PBS) with 5% NBCS) for 60 minutes, and subjected to fluorescence activated cell sorting (FACS) analysis on a FACScan flowcytometer (BD PharMingen, USA). Data are analyzed using the FlowJo software.

[3] = test system: leukemia cells, lung cancer cells and fibrosarcoma cells; details: Tetrahedron Letters 1998, 39: 9103-9106; cited from earlier work
HeLa LC3-GFP cells = experiment: Fluorescence microscopy of GFP-LC3 puncta formation (autophagy); format: cell-based, human; details: 1-20 μM for 24 hours, 10 μM for 6, 12 and 24 hours, FIG. 1, 2
Description: LC3, a known autophagy indicator, is used to show Griffipavixanthone's ability to induce autophagy in cancer cells and thus provide anti-cancer property. 1×10^5/ml HeLa LC3-GFP cells are seeded in a 35 mm×10 mm culture dish and preincubated for 24 hours before treatment with griffipavixanthone. HeLa LC3-GFP cells are treated with vehicle (control), 1 μM, 5 μM, 10 μM and 20 μM for 24 hours. After treatment of griffipavixanthone, the medium is removed from the dish and 4% methyl aldehyde with 0.3% triton-100 is added for fastening and permeation. The staining solution DAPI is added. Fluorescence of the bound dyes is analyzed using a laser scanning confocal microscope (FV10i, OlympusCorporation, Japan). […] Griffipavixanthone induces autophagy in cervical cancer cells at concentration and time dependent manner.

HeLa cells [4] = experiment: MTT cytotoxic assay; format: cell-based; details: 0.1-20 μM, 72 hours; FIG. 3
Description: Human cervical cancer cell lines HeLa are maintained in DMEM (Invitrogen) supplemented with 10% newborn calf serum (Gibco, Life technologies Corporation, New Zealand), 1% penicillin/streptomycin (Invitrogen). Cells are maintained in a humidified atmosphere containing 5% CO2 at 37° C.
4×10^4/ml HeLa cells are seeded in a 96-well plate and preincubated for 24 hours before treatment with Griffipavixanthone (0.1-20 μM). After 72 hours, 10 μl of MTT solution (5 mg/ml) (Sigma Chemical Company, St. Louis, Mo., USA) are added to each well for 4 hours. The resulting crystals are dissolved in DMSO. The controls are native cells treated with medium only. The spectrophotometric absorbance at 570 nm is measured using a microplate reader (Synergy HT, Bio-Tek Instruments Inc., Winooski, Vt., USA). The percentage cytotoxicity is calculated by the formula: Percentage cytotoxicity (cell death)=[1-(absorbance of experimental wells/absorbance of control wells)]×100%.

[5] = test system: HeLa cells xenograft tumor; experiment: Inhibition of tumor growth in HeLa xenograft nude mouse model; format: in vivo, nude mice; details: intratumor injection 40 ng/kg/day or 80 ng/kg/day once every other day for 18 days; FIG. 6
Description: A total of 2×10^6 HeLa cells suspended in 100 μL of saline are inoculated s.c. into the right flank of 4-week-old male nude mice. Drug injections are made once the tumors reach an average volume of about 100 mm^3. Mice are divided randomly into two groups and subjected to intratumor injection of vehicle or Griffipavixanthone (40 ng/kg/day or 80 ng/kg/day) once every other day for 18 days. A total 2 μg/mouse and 4 μg/mouse are given to the two groups of mice in the 18 days treatment. Tumor volume is measured by caliper measurements (V=L×W^2/2). For intratumor injection, Griffipavixanthone is prepared in 0.5% dimethyl sulfoxide, 0.5% tween 80, and 99% PBS. […] The dosage of administered Griffipavixanthone is translated to a human dosage of 3.2 ng/kg/day to 6.4 ng/kg/day with the equation: human equivalent dose=animal dose×animal Km/human Km, where mouse Km factor is 3 and human Km factor is 37 as disclosed in Reagan-Shaw, S., Nihal, M. and Ahmad N., “Dose translation from animal to human studies revisited”, The FASEB Journal, Life Science Forum, disclosure of which is incorporated herein by reference in its entity.

## CC1=CC2c3c(c(O)c(O)c4oc5cc(O)cc(O)c5c(=O)c34)C(c3cc(O)c(O)c4oc5cc(O)cc(O)c5c(=O)c34)C2C(C)(C)C1 (stereo not drawn) [Griffipavixanthone]
HeLa cells [1]
  Autophagosome accumulation (LC3-I, LC3-II, p62 immunoblot): increases autophagosome accumulation and induces autophagy
HeLa cells [2]
  HeLa cell death (FACS): induces HeLa cell death significantly in serum-free medium at concentration dependent manner
[3]
  In vitro cytotoxicity: high in vitro cytotoxity
HeLa LC3-GFP cells
  GFP-LC3 puncta formation (percentage of GFP-LC3 positive cells): increases GFP-LC3 puncta formation at concentration and time dependent manner
HeLa cells [4]
  HeLa cell viability / cytotoxicity (MTT): inhibit HeLa cell lines at concentration dependent manner
[5]
  Tumor growth (tumor volume): growth of tumor is inhibited
